Laboratory results published in ChEMBL document CHEMBL3044558, “Structure-activity relationship development of dihaloaryl triazole compounds as insecticides and acaricides. 1. Phenyl thiophen-2-yl triazoles” (2007).
The source made the active and inactive calls. The calls are words filed in the database; no cut-off is given here.

Legend:
Trichoplusia ni = assay: Insecticidal activity against Trichoplusia ni (cabbage looper) second-instar larvae infested on 400 ppm compound pre-treated cabbage leaf disk assessed as insect mortality measured 5 days post compound treatment under green house conditions; format: functional; conditions: at 400 ppm
Spodoptera exigua = assay: Insecticidal activity against Spodoptera exigua second-instar larvae feeded on 400 ppm compound treated lepidopteran diet assessed as insect mortality measured 5 days post compound treatment under green house conditions; format: functional; conditions: at 400 ppm
Heliothis virescens = assay: Insecticidal activity against Heliothis virescens (tobacco budworm) second-instar larvae infested on 400 ppm compound pre-treated cotton cotyledon disk assessed as insect mortality measured 5 days post compound treatment under green house conditions; format: functional
Tetranychus urticae = assay: Insecticidal activity against female Tetranychus urticae (two-spotted spider mite) infested cotton leaf disks followed by 2.5 ppm compound spraying after oviposit assessed as insect mortality measured after 6 days post compound application under green house conditions; format: functional; conditions: foliar, 144 h
Aphis gossypii [1] = assay: Insecticidal activity against Aphis gossypii (cotton aphid) infested one week old Crookneck squash plants assessed as insect mortality at 50 ppm measured after 3 days post compound application under green house conditions; format: functional; conditions: 72 h
Bemisia tabaci [2] = assay: Insecticidal activity against Bemisia tabaci (sweet potato whitefly) second-instar larvae infested five weeks old cotton plants followed by compound 250 ppm compound spraying after insect oviposit assessed as insect mortality measured 13 days post compound treatment under green house conditions; format: functional
Aphis gossypii [3] = system: Aphis gossypii
Bemisia tabaci [4] = system: Bemisia tabaci

SMILES	mortality (Trichoplusia ni)	mortality (Spodoptera exigua)	mortality (Heliothis virescens)	mortality at 2.5 ppm (Tetranychus urticae)	mortality at 50 ppm (Aphis gossypii [1])	mortality (Bemisia tabaci [2])	mortality (Aphis gossypii [3])	mortality (Bemisia tabaci [4])
Cc1cc(C2CCC(OC(F)(F)C(F)Cl)CC2)sc1-c1nc(-c2c(F)cccc2Cl)nn1C (stereo not given)	90%	90%	90%	80%	< 50%	–	–	–
Cn1nc(-c2c(F)cccc2Cl)nc1-c1sc(-c2ccc(OC(F)(F)F)cc2)c(Br)c1Cl	70%	90%	90%	80%	60%	<50%	–	–
Cc1cc(-c2ccc(OC(C)C)cc2)sc1-c1nc(-c2c(F)cccc2Cl)nn1C	90%	60%	80%	60%	–	–	inactive	–
Cc1sc(-c2nc(-c3c(F)cccc3Cl)nn2C)c(C)c1-c1ccc(Cl)cc1	<50%	80%	90%	80%	50%	–	–	inactive
Cc1cc(-c2ccc(C(C)C)cc2)sc1-c1nc(-c2c(F)cccc2Cl)nn1C	90%	70%	90%	90%	< 50%	–	–	inactive
CCOc1ccc(-c2csc(-c3nc(-c4c(F)cccc4Cl)nn3C)c2C)cc1	90%	80%	90%	90%	50%	90%	–	–
Cc1c(-c2ccc(OC(F)(F)C(Cl)Cl)cc2)csc1-c1nc(-c2c(F)cccc2Cl)nn1C	<50%	90%	90%	90%	90%	90%	–	–
CCOc1ccc(-c2cc(Cl)c(-c3nc(-c4c(F)cccc4F)nn3C)s2)cc1	<50%	60%	90%	80%	–	–	inactive	inactive
Cn1nc(-c2c(F)cccc2Cl)nc1-c1sc(-c2ccc(Br)cc2)cc1Cl	90%	80%	90%	90%	90%	–	–	inactive
Cc1cc(-c2cccc(C(F)(F)F)c2)sc1-c1nc(-c2c(F)cccc2Cl)nn1C	90%	70%	<50%	< 50%	< 50%	–	–	inactive
Cc1c(-c2ccc(OC(F)(F)C(F)C(F)(F)F)cc2)csc1-c1nc(-c2c(F)cccc2Cl)nn1C (stereo not given)	90%	60%	90%	90%	90%	90%	–	–
Cn1nc(-c2c(F)cccc2Cl)nc1-c1sc(-c2ccc(C(F)(F)F)cc2)cc1Cl	90%	60%	90%	90%	90%	<50%	–	–
Cc1c(-c2ccc(OC(F)(F)F)cc2)sc(-c2nc(-c3c(F)cccc3Cl)nn2C)c1C	90%	80%	<50%	90%	< 50%	70%	–	–
Cn1nc(-c2c(F)cccc2F)nc1-c1sc(-c2ccc(OC(F)(F)F)cc2)cc1Cl	<50%	<50%	80%	90%	80%	–	–	inactive
Cc1cc(-c2cccc(C(F)(F)F)c2F)sc1-c1nc(-c2c(F)cccc2Cl)nn1C	90%	60%	90%	90%	60%	–	–	inactive
Cc1cc(-c2ccc(F)cc2)sc1-c1nc(-c2c(F)cccc2Cl)nn1C	90%	80%	90%	60%	< 50%	–	–	inactive
Cc1sc(-c2nc(-c3c(F)cccc3Cl)nn2C)c(C)c1-c1ccc(OC(F)(F)C(F)Cl)cc1 (stereo not given)	<50%	80%	80%	70%	< 50%	80%	–	–
Cc1cc(-c2ccc(Cl)cc2)sc1-c1nc(-c2c(F)cccc2Cl)nn1C	90%	90%	90%	90%	60%	60%	–	–
Cc1sc(-c2nc(-c3c(F)cccc3Cl)nn2C)c(C)c1-c1ccc(OC(F)(F)C(F)Br)cc1 (stereo not given)	–	80%	90%	80%	50%	80%	–	–
Cc1sc(-c2nc(-c3c(F)cccc3Cl)nn2C)c(C)c1-c1ccc(OC(F)(F)F)cc1	<50%	90%	90%	90%	70%	60%	–	–
Cc1c(-c2ccc(OC(F)=C(Cl)Cl)cc2)csc1-c1nc(-c2c(F)cccc2Cl)nn1C	<50%	80%	90%	90%	70%	70%	–	–
CSc1ccc(-c2cc(Cl)c(-c3nc(-c4c(F)cccc4Cl)nn3C)s2)cc1	80%	60%	90%	90%	60%	<50%	–	–
Cc1cc(-c2ccc(OC(F)(F)C(F)C(F)(F)F)cc2)sc1-c1nc(-c2c(F)cccc2Cl)nn1C (stereo not given)	90%	80%	90%	90%	90%	<50%	–	–
Cc1cc(-c2ccc(OC(F)(F)C(Cl)Cl)cc2)sc1-c1nc(-c2c(F)cccc2Cl)nn1C	80%	90%	90%	90%	90%	50%	–	–
Cc1cc(-c2ccc(C(F)(F)F)cc2)sc1-c1nc(-c2c(F)cccc2Cl)nn1C	90%	90%	90%	90%	< 50%	<50%	–	–
CCOc1ccc(-c2sc(-c3nc(-c4c(F)cccc4Cl)nn3C)c(Cl)c2Br)cc1	<50%	90%	90%	60%	< 50%	–	–	inactive
Cc1c(-c2ccc(OC(F)(F)C(F)Cl)cc2)sc(-c2nc(-c3c(F)cccc3Cl)nn2C)c1C (stereo not given)	<50%	60%	90%	80%	< 50%	60%	–	–
CCOc1ccc(-c2sc(-c3nc(-c4c(F)cccc4Cl)nn3C)c(C)c2C)cc1	80%	90%	<50%	90%	< 50%	–	–	inactive
